Measured values as given in patent publication US9908853B2, “Inhibitors of peptidyl arginine deiminase (PAD) enzymes and uses thereof” (University Health Network, priority 2012, dated 2018).
Where two headings read alike, the source gives them in different places. Blank lines part the entries; values can stand above or below the compound they belong to.

What was measured:
human PAD4 = human PAD4 (Homo sapiens, UniProt Q9UM07); experiment: Inhibition of PAD4 enzyme activity (BAEE substrate, colorimetric, 530 nm); format: biochemical
Sequence of human PAD4 (Q9UM07 whole entry): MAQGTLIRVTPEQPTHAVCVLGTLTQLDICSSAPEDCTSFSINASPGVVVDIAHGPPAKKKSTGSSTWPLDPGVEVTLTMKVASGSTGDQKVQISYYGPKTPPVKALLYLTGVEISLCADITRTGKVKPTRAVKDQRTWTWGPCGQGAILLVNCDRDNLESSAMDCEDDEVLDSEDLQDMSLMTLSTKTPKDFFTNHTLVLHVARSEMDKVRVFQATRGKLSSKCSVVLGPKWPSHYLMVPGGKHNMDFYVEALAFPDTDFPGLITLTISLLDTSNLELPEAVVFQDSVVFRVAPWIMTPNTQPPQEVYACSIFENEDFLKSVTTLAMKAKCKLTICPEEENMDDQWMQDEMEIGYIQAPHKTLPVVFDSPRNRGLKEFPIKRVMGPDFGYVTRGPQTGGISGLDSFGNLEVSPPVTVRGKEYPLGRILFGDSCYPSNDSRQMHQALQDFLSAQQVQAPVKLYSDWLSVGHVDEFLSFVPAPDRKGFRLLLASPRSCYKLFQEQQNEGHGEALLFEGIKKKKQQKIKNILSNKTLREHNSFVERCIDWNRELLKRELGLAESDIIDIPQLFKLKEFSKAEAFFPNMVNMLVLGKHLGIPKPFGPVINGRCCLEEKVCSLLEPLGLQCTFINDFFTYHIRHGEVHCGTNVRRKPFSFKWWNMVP

human PAD1 = biological target: T1, human PAD1 (Homo sapiens, UniProt Q9ULC6); experiment: Inhibition of PAD1 enzyme activity (BAEE substrate, colorimetric, 530 nm); format: biochemical; conditions: for Ki: Table 2, read-out: PAD Ki ± SE (μM), PAD1
T1 sequence (Q9ULC6 1-663): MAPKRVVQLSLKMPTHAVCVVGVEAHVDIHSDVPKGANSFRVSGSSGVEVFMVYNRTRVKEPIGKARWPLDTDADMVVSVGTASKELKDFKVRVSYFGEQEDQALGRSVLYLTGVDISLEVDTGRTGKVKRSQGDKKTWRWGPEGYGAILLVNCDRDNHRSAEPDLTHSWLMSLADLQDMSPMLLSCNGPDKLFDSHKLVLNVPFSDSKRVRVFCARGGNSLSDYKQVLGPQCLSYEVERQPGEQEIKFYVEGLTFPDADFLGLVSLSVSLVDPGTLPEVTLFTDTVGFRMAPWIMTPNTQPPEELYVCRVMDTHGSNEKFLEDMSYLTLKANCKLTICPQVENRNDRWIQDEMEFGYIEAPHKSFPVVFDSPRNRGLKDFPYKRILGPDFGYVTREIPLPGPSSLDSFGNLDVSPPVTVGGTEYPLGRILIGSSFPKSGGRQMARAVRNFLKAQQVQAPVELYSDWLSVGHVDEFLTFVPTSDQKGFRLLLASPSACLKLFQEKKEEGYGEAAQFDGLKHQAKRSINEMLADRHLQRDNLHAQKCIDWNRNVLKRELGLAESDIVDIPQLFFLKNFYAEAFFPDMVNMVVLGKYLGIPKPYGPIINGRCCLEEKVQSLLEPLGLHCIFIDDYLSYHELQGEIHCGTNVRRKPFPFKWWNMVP
Description: Control reaction contained no inhibitor. Enzyme was added to initiate the reaction. The reaction samples were incubated at 37° C. for 30 min. Color reagent was added and the samples were boiled for 15 min. Samples were cooled on ice, further processed, and the absorbance was measured at 530 nm. Remaining activity was calculated as a percentage of the uninhibited samples.

[1] = In vitro cellular toxicity to CHO cells; format: cell-based; conditions: Chinese hamster, read-out: CHO cells IC50 ± SE
rabbit PAD2 = rabbit PAD2 (Oryctolagus cuniculus, UniProt G1T837); experiment: Inhibition of PAD2 enzyme activity; format: biochemical; conditions: for IC50: rabbit PAD2, Table 1
Sequence of rabbit PAD2 (G1T837 1-665): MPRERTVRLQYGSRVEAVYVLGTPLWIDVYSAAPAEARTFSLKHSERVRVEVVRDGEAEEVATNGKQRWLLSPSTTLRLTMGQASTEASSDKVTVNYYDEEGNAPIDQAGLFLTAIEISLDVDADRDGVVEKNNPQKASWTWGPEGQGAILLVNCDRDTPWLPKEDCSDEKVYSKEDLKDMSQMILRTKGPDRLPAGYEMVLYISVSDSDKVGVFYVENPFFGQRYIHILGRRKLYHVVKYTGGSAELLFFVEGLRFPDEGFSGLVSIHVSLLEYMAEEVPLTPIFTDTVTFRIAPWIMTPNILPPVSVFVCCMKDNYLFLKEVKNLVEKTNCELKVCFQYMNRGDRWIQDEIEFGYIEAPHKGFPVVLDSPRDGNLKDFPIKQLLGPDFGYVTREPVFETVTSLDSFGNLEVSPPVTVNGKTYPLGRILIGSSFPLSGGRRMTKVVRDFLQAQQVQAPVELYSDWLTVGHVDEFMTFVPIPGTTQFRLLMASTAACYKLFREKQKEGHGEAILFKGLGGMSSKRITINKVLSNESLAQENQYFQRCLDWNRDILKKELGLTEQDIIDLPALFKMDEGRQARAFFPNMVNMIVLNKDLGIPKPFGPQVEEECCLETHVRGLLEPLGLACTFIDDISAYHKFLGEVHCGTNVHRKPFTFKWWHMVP

mice = experiment: Mouse toxicity studies; format: in vivo
MOG-EAE mouse model = experiment: MOG-EAE mouse model, compound of Formula (Ia); format: in vivo, C57BL/6 mice
Description: On day 8 after the induction of EAE, mice received 2 mg of the compound of Formula ([…].) every other day until day 23. […] Mice were sacrificed on day 24 (i.e. after 2 weeks of treatment) and anti-CD3 staining on spinal cord and brain samples was undertaken.

ND4 mouse = conditions: cited from earlier work
MOG-EAE model = conditions: cited from earlier work
[2] = tested on: PAD enzyme activity (i.e. PAD2 and PAD4); conditions: after addition of 2CA to human brain extracts; cited from earlier work
[3] = Table 2, read-out: PAD Ki ± SE (μM), PAD4
[4] = Example 8, read-out: equilibrium inhibition constant Ki against PAD2

Ki (human PAD4; [3]): 52 ± 34.1 µM
Ki (human PAD1): 55.5 ± 12.3 µM
Structure (SMILES): CC1(C)NC(=O)N(CCNCCN)C1=O [I(j)]
IC50 [1]: 2690 ± 175 µM

Structure (SMILES): CC1(C)NC(=O)N(CN2CCNCC2)C1=O [Formula (Ia)]
IC50 (human PAD4): 48.3 ± 7.4 µM
Ki (human PAD4): 7.4 µM
IC50 (human PAD4; read-out: IC50 (μM), PAD4, human PAD4, Table 1, varies with salt form and batch of the enzyme): ≤ 3820 µM
inhibition at 30 µM (human PAD4; read-out: Inhibition of the enzyme activity): 78%
Ki (rabbit PAD2): 0.93 µM
IC50 (human PAD1; Table 1): 763 µM
general toxicity (mice; 10 mg/mouse for 5 days): no general toxicity
general toxicity (mice; single 20 mg/mouse dose): no general toxicity
clinical scores (MOG-EAE mouse model; 2 mg b.i.d. i.p. every other day, day 8 to day 23, control group higher than 2): ~1
CD3 markers in brain (MOG-EAE mouse model; anti-CD3 staining, sacrificed day 24, untreated 4.8±0.19): 3.8±0.23 /mm^2
PAD activity in treated brain samples (MOG-EAE mouse model; sacrificed day 24): much reduced

Ki (human PAD4; [3]): 4 ± 1.7 µM
Ki (human PAD1): 110 ± 4 µM
Structure (SMILES): CC1(C)NC(=O)N(CCn2ccnc2)C1=O [I(g)]
IC50 [1]: 1990 ± 823 µM

Ki (human PAD4; [3]): 45.6 ± 9 µM
Ki (human PAD1): 115 ± 5.5 µM
Structure (SMILES): CN1CCN(CN2C(=O)NC(C)(C)C2=O)CC1 [I(e)]
IC50 [1]: 143 ± 4 µM

IC50 (human PAD4; human PAD4, Table 1, varies with salt form and batch of the enzyme, read-out: IC50 (μM), PAD4): 36 ± 18 µM
Ki (rabbit PAD2; [4]): 0.46 µM
IC50 (rabbit PAD2): 12.3 ± 4.8 µM
Structure (SMILES): CCOC(=O)CC1(C)NC(=O)N(CN2CCNCC2)C1=O (centres unmarked) [Formula (Ib), Ethyl [4-methyl-2,5-dioxo-1-(piperazin-1-ylmethyl)imidazolidin-4-yl]acetate]

Ki (rabbit PAD2; [4]): 0.65 µM
IC50 (rabbit PAD2): 16.8 ± 7 µM
Structure (SMILES): CC(C)(C)OC(=O)CC1(C)NC(=O)N(CN2CCNCC2)C1=O (centres unmarked) [Formula (Ic), tert-Butyl-[4-methyl-2,5-dioxo-1-(piperazin-1-ylmethyl)imidazolidin-4-yl]acetate]

Ki (human PAD4; [3]): 317 ± 32.8 µM
Ki (human PAD1): 117 ± 41.1 µM
Structure (SMILES): CC1(C)NC(=O)N(CCN)C1=O [I(i)]
IC50 [1]: 5840 ± 2370 µM

Ki (human PAD4; [3]): 384 ± 41 µM
Ki (human PAD1): 105 ± 22.1 µM
Structure (SMILES): CC1(C)NC(=O)N(CCCN)C1=O [I(k)]

Ki (human PAD4; [3]): 123 ± 14.7 µM
Ki (human PAD1): 42.9 ± 5 µM
Structure (SMILES): CC1(C)NC(=O)N(CCCNCCN)C1=O [I(l)]
IC50 [1]: 16700 ± 31600 µM

Inhibition of PAD4, in words (human PAD4): good activity
Ki (human PAD4; [3]): 21.8 ± 7.1 µM
Ki (human PAD1): 33.6 ± 2.6 µM
Structure (SMILES): CC1(C)NC(=O)N(CCNCC(N)=O)C1=O [I(h)]

Structure (SMILES): N=C(N)CCl [Compound 2CA, 2-chloroacetamidine]
disease progression in ND4 mice, treatment after early onset (ND4 mouse; 5 mg/kg i.p. every other day, from 3.5 months up to 6 months of age): did not show disease progression
disease in ND4 mice, treatment before onset (ND4 mouse; 5 mg/kg i.p. every other day, started at 2 months of age): essentially prevented the disease
PAD activity in brain (ND4 mouse; ND4 mice, right after cessation of treatment at 6 months): attenuated
deaths in the treatment groups (ND4 mouse; ND4 mice, until 6 months of age): none died
G-ratio (axon diameter/fiber diameter), optic nerve (ND4 mouse; treated ND4 mice, healthy littermates 0.74+0.13, ND4 0.96+0.3): 0.9+0.15
survival by day 30 (MOG-EAE model; 5 mg/kg i.p. every other day starting day 9): ~50%
PAD activity in brain white matter (MOG-EAE model; EAE mice): effectively attenuated
PAD activity in spinal cord (MOG-EAE model; EAE mice): reductions to normal levels
relapse (MOG-EAE model; treated group): No relapse
disease lethality (MOG-EAE model; treatment started before immunization): zero
PAD activity in NAWM extracts [2]: declined
